Activity calls are given as the source filed them. How the calls were made is not given here.
System: rodent carcinogenicity bioassays, tumor incidence
Experiment: CCRIS carcinogenicity studies
Method in brief: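 Archive of carcinogenicity, mutagenicity, tumor promotion and tumor inhibition results drawn from journals, NCI reports and other sources, expert-reviewed; covers 1985-2011 and is no longer updated.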

For `O=C1Nc2ccc(Cl)cc2C(c2ccccc2)=NC1O` (centres undefined), the carcinogen call (Species: MOUSE, Strain/Sex: B6C3F1/FEMALE, Route: ORAL, Dose: 0, 125, 2500, 5000 PPM IN FEED FOR 104-105 WK (STUDY DURATION: 105 WK), Dose: 0, 125, 2500, 5000 PPM IN FEED FOR 104-105 WK (STUDY DURATION: 105 WK), Tumor Site: Type of Lesion: LIVER: HEPATOBLASTOMA, HEPATOCELLULAR ADENOMA, HEPATOCELLULAR CARCINOMA, THYROID: FOLLICULAR CELL ADENOMA) was “active; positive”, the carcinogen call (Species: MOUSE, Strain/Sex: B6C3F1/MALE, Route: ORAL, Dose: 0, 125, 2500, 5000 PPM IN FEED FOR 104-105 WK (STUDY DURATION: 105 WK), Dose: 0, 125, 2500, 5000 PPM IN FEED FOR 104-105 WK (STUDY DURATION: 105 WK), Tumor Site: Type of Lesion: LIVER: HEPATOBLASTOMA, HEPATOCELLULAR ADENOMA, HEPATOCELLULAR CARCINOMA) was “active; positive” and the carcinogen call (Species: MOUSE, Strain/Sex: SWISS-WEBSTER/FEMALE, Route: ORAL, Dose: 0, 2500, 5000 PPM IN FEED FOR 57 WK (STUDY DURATION: 57 WK), Dose: 0, 2500, 5000 PPM IN FEED FOR 57 WK (STUDY DURATION: 57 WK), Tumor Site: Type of Lesion: LIVER: HEPATOCELLULAR ADENOMA, HEPATOCELLULAR CARCINOMA) was “active; positive”. The carcinogen call (Species: MOUSE, Strain/Sex: SWISS-WEBSTER/MALE, Route: ORAL, Dose: 0, 2500, 5000 PPM IN FEED FOR 57 WK (STUDY DURATION: 57 WK), Dose: 0, 2500, 5000 PPM IN FEED FOR 57 WK (STUDY DURATION: 57 WK), Tumor Site: Type of Lesion: LIVER: HEPATOCELLULAR ADENOMA, HEPATOCELLULAR CARCINOMA) was “active; positive”, the carcinogen call (Species: MOUSE, Strain/Sex: SWISS/MALE,FEMALE, Route: ORAL, Dose: 0.05, 0.15% IN DIET FOR 9 MO, Tumor Site: Type of Lesion: LIVER: HEPATOCELLULAR ADENOMA) was “active; positive” and the carcinogen call (Species: RAT, Strain/Sex: F344/FEMALE, Route: ORAL, Dose: 0, 625, 2500, 5000 PPM FOR 105 WK (STUDY DURATION: 105 WK), Dose: 0, 625, 2500, 5000 PPM FOR 105 WK (STUDY DURATION: 105 WK)) was “inactive; negative”. For the same compound, the carcinogen call (Species: RAT, Strain/Sex: F344/FEMALE, Route: ORAL, Dose: 0, 625, 2500, 5000 PPM IN DIET FOR 105 WK (STUDY DURATION: 105 WK), Dose: 0, 625, 2500, 5000 PPM IN DIET FOR 105 WK (STUDY DURATION: 105 WK)) was “inactive; negative”, the carcinogen call (Species: RAT, Strain/Sex: F344/FEMALE, Route: ORAL, Dose: 0, 10,000 PPM FOR 26 WK (STUDY DURATION: 105 WK)) was “inactive; negative” and the carcinogen call (Species: RAT, Strain/Sex: F344/FEMALE, Route: ORAL, Dose: 0, 10000 PPM IN DIET FOR 26 WK (STUDY DURATION: 105 WK)) was “inactive; negative”. For the same compound, the carcinogen call (Species: RAT, Strain/Sex: F344/MALE, Route: ORAL, Dose: 0, 625, 2500, 5000 PPM IN DIET FOR 105 WK (STUDY DURATION: 105 WK), Dose: 0, 625, 2500, 5000 PPM IN DIET FOR 105 WK (STUDY DURATION: 105 WK), Tumor Site: Type of Lesion: KIDNEY: RENAL TUBULE ADENOMA) was “equivocal”, the carcinogen call (Species: RAT, Strain/Sex: F344/MALE, Route: ORAL, Dose: 0, 10000, PPM IN DIET FOR 26 WK (STUDY DURATION: 105 WK), Dose: 0, 10000, PPM IN DIET FOR 26 WK (STUDY DURATION: 105 WK), Tumor Site: Type of Lesion: KIDNEY: RENAL TUBULE ADENOMA) was “equivocal” and the carcinogen call (Species: RAT, Strain/Sex: F344/MALE, Route: ORAL, Dose: 0, 10,000 PPM FOR 26 WK (STUDY DURATION: 105 WK), Tumor Site: Type of Lesion: KIDNEY: RENAL TUBULE ADENOMA) was “active; positive”.
With `Nc1ccc([N+](=O)[O-])cc1N` the carcinogen call (Species: MOUSE, Strain/Sex: B6C3F1/FEMALE, Route: ORAL, Dose: 0, 3750, 7500 PPM IN DIET, Dose: 0, 3750, 7500 PPM IN DIET) was “inactive; negative”, the carcinogen call (Species: MOUSE, Strain/Sex: B6C3F1/MALE, Route: ORAL, Dose: 0, 3750, 7500 PPM IN DIET, Dose: 0, 3750, 7500 PPM IN DIET) was “inactive; negative” and the carcinogen call (Species: RAT, Strain/Sex: F344/FEMALE, Route: ORAL, Dose: 0, 375, 750 PPM IN DIET, Dose: 0, 375, 750 PPM IN DIET) was “inactive; negative”. The carcinogen call (Species: RAT, Strain/Sex: F344/MALE, Route: ORAL, Dose: 0, 375, 750 PPM IN DIET, Dose: 0, 375, 750 PPM IN DIET) was “inactive; negative”.
`CC1=CC(=O)CC(C)(C)C1` was tested, and the carcinogen call (Species: MOUSE, Strain/Sex: B6C3F1/FEMALE, Route: GAVAGE, Dose: 0, 250, 500 MG/KG IN CORN OIL 5 D/WK FOR 103 WK (STUDY DURATION: 105 WK), Dose: 0, 250, 500 MG/KG IN CORN OIL 5 D/WK FOR 103 WK (STUDY DURATION: 105 WK)) was “inactive; negative”, the carcinogen call (Species: MOUSE, Strain/Sex: B6C3F1/MALE, Route: GAVAGE, Dose: 0, 250, 500 MG/KG IN CORN OIL 5 D/WK FOR 103 WK (STUDY DURATION: 105 WK), Dose: 0, 250, 500 MG/KG IN CORN OIL 5 D/WK FOR 103 WK (STUDY DURATION: 105 WK), Tumor Site: Type of Lesion: LIVER: HEPATOCELLULAR ADENOMA OR CARCINOMA, INTEGUMENTARY SYSTEM: MESENCHYMAL TUMOR, HEMATOPOIETIC SYSTEM: MALIGNANT LYM, Tumor Site: Type of Lesion: LIVER: HEPATOCELLULAR ADENOMA OR CARCINOMA, INTEGUMENTARY SYSTEM: MESENCHYMAL TUMOR, HEMATOPOIETIC SYSTEM: MALIGNANT LYM) was “equivocal” and the carcinogen call (Species: RAT, Strain/Sex: F344/FEMALE, Route: GAVAGE, Dose: 0, 250, 500 MG/KG IN CORN OIL 5 D/WK FOR 103 WK (STUDY DURATION: 105 WK), Dose: 0, 250, 500 MG/KG IN CORN OIL 5 D/WK FOR 103 WK (STUDY DURATION: 105 WK)) was “inactive; negative”. The carcinogen call (Species: RAT, Strain/Sex: F344/MALE, Route: GAVAGE, Dose: 0, 250, 500 MG/KG IN CORN OIL 5 D/WK FOR 103 WK (STUDY DURATION: 105 WK), Dose: 0, 250, 500 MG/KG IN CORN OIL 5 D/WK FOR 103 WK (STUDY DURATION: 105 WK), Tumor Site: Type of Lesion: PREPUTIAL GLAND: CARCINOMA, KIDNEY: TUBULAR CELL ADENOMA OR ADENOCARCINOMA, PANCREAS: ACINAR CELL ADENOMA, Tumor Site: Type of Lesion: PREPUTIAL GLAND: CARCINOMA, KIDNEY: TUBULAR CELL ADENOMA OR ADENOCARCINOMA, PANCREAS: ACINAR CELL ADENOMA) was “active; positive”.
`C=CCN(N=O)C(N)=O` was tested, and the carcinogen call (Species: RAT, Strain/Sex: F344/FEMALE, Route: GAVAGE, Dose: 0, 13 MG/ML (TOTAL DOSE 0; 1.2 MMOL) IN 2 ML ETHYL ACETATE AND CORN OIL (1:2) 2/WK FOR 30 WK (STUDY DURATION: LIFETIME), Dose: 0, 13 MG/ML (TOTAL DOSE 0; 1.2 MMOL) IN 2 ML ETHYL ACETATE AND CORN OIL (1:2) 2/WK FOR 30 WK (STUDY DURATION: LIFETIME), Tumor Site: Type of Lesion: FORESTOMACH: SQUAMOUS CELL CARCINOMA, MAMMARY GLAND: TUMOR) was “active; positive”, the carcinogen call (Species: RAT, Strain/Sex: F344/FEMALE, Route: GAVAGE, Dose: 0, 13 MG/ML IN 0.2 ML ETHYL ACETATE AND CORN OIL 2/WK FOR 30 WK (STUDY DURATION: LIFESPAN), Tumor Site: Type of Lesion: FORESTOMACH: TUMOR, MAMMARY GLAND: TUMOR) was “active; positive” and the carcinogen call (Species: RAT, Strain/Sex: F344/MALE, Route: GAVAGE, Dose: 0, 13 MG/ML (TOTAL DOSE 0; 1.2 MMOL) IN 2 ML ETHYL ACETATE AND CORN OIL (1:2) 2/WK FOR 30 WK (STUDY DURATION: LIFETIME), Dose: 0, 13 MG/ML (TOTAL DOSE 0; 1.2 MMOL) IN 2 ML ETHYL ACETATE AND CORN OIL (1:2) 2/WK FOR 30 WK (STUDY DURATION: LIFETIME), Tumor Site: Type of Lesion: FORESTOMACH: SQUAMOUS CELL CARCINOMA, LUNG: TUMOR, COLON: TUMOR, ZYMBAL GLAND: TUMOR, Tumor Site: Type of Lesion: FORESTOMACH: SQUAMOUS CELL CARCINOMA, LUNG: TUMOR, COLON: TUMOR, ZYMBAL GLAND: TUMOR) was “active; positive”. The carcinogen call (Species: RAT, Strain/Sex: F344/MALE, Route: GAVAGE, Dose: 0, 13 MG/ML IN 0.2 ML ETHYL ACETATE AND CORN OIL 2/WK FOR 30 WK (STUDY DURATION: LIFESPAN), Tumor Site: Type of Lesion: FORESTOMACH: TUMOR, LUNG: COLON: TUMOR, ZYMBAL GLAND: TUMOR, Tumor Site: Type of Lesion: FORESTOMACH: TUMOR, LUNG: COLON: TUMOR, ZYMBAL GLAND: TUMOR) was “active; positive”.
With `CCc1cc(C(N)=S)ccn1` the carcinogen call (Species: MOUSE, Route: ORAL, Tumor Site: Type of Lesion: THYROID GLAND) was “active; positive”, the carcinogen call (Species: MOUSE, Strain/Sex: B6C3F1/FEMALE, Route: ORAL, Dose: 0, 1000, 2000 PPM IN DIET, Dose: 0, 1000, 2000 PPM IN DIET) was “inactive; negative” and the carcinogen call (Species: MOUSE, Strain/Sex: B6C3F1/MALE, Route: ORAL, Dose: 0, 1000, 2000 PPM IN DIET, Dose: 0, 1000, 2000 PPM IN DIET) was “inactive; negative”. For the same compound, the carcinogen call (Species: RAT, Strain/Sex: F344/FEMALE, Route: ORAL, Dose: 0, 1500, 3000 PPM IN DIET, Dose: 0, 1500, 3000 PPM IN DIET) was “inactive; negative” and the carcinogen call (Species: RAT, Strain/Sex: F344/MALE, Route: ORAL, Dose: 0, 1500, 3000 PPM IN DIET, Dose: 0, 1500, 3000 PPM IN DIET) was “inactive; negative”.
